Experimental data as given in patent publication US10780090B2, “Heteroaryl compounds useful as inhibitors of SUMO activating enzyme” (Millennium Pharmaceuticals, Inc., priority 2014, dated 2020).
Where two headings read alike, the source gives them in different places.

Target: recombinant human SAE enzyme (Homo sapiens (Human), UniProt Q9UBT2)
Assay: SAE HTRF enzyme assay
Assay type: biochemical
Details: for inhibition at 0.111 µM: read-out: Percent Inhibition
Method: Example 215: SAE HTRF enzyme assay
The SAE enzymatic reaction totals 50 μl and contains 50 mM HEPES Hemisodium (pH 7.5), 0.05% BSA, 5 mM MgCl2, 0.5 μM ATP, 250 μM GSH, 0.01 μM Ubc9-GST, 0.125 μM Sumo-Flag and 0.11 nM recombinant human SAE enzyme. The enzymatic reaction mixture, with and without inhibitor, Is incubated at 24° C. for 105 min in a 384-well plate before termination with […] of Stop/Detection buffer (0.1M HEPES Hemisodium pH 7.5, 0.05% Tween20, 20 mM EDTA, 410 mM KF, 0.53 nM Europium-Cryptate labeled monoclonal anti-Flag M2 Antibody (CisBio International) and 8.125 μg/ml PHYCOLINK goat anti-GST allophycocyanin (XL-APC) antibody (Prozyme)). After incubation for 2 hours at 24° C., quantification of FRET is performed on the Pherostar™ (BMG Labtech). Percentage inhibition values at a single concentration or enzyme inhibition (IC50) values are determined from those curves. One skilled in the art will appreciate that the values generated either as percentage inhibition at a single concentration or IC50 values are subject to experimental variation.

[1] = SAE inhibition at compound concentration 0.111 μM
[2] = SAE inhibition, class symbols, legend in nM

recombinant human SAE enzyme, sequence (Q9UBT2 whole entry): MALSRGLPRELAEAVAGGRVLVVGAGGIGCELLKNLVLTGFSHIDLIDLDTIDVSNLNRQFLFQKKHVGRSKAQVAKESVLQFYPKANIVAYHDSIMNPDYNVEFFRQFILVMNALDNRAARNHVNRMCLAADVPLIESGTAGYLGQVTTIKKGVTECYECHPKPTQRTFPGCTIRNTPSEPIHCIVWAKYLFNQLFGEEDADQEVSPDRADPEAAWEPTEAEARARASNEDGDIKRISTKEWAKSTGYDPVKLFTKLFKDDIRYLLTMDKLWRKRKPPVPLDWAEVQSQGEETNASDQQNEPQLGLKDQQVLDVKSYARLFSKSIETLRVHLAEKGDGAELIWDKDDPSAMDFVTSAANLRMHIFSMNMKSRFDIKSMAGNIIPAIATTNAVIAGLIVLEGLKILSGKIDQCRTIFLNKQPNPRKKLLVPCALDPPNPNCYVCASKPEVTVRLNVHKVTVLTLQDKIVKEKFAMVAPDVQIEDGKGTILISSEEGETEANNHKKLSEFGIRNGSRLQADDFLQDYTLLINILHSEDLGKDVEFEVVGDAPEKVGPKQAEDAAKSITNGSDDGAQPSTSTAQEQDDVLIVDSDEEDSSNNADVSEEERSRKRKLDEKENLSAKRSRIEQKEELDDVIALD
recombinant human SAE enzyme, sequence (Q9UBE0 whole entry partner): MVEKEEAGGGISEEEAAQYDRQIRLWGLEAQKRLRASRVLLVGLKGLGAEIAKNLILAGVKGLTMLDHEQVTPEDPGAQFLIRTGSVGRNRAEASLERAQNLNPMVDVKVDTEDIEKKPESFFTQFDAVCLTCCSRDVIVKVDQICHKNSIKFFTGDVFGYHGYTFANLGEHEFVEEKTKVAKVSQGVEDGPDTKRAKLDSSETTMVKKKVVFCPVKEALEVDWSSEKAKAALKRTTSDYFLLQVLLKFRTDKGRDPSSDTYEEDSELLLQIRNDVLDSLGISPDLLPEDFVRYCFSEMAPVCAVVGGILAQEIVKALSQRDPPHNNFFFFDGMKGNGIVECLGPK

Q: Cc1sc(C(=O)c2cncnc2N[C@@H]2C[C@H](COS(N)(=O)=O)[C@@H](O)C2)cc1[C@@H]1OCCc2ccc(C3CC3)cc21 (single isomer, unassigned) [I-277b, [(1R,2S,4R)-4-{[5-({4-[(1R)-7-cyclopropyl-3,4-dihydro-1H-isochromen-1-yl]-5-methyl-2-thienyl}carbonyl)pyrimidin-4-yl]amino}-2-hydroxycyclopentyl]methyl sulfamate or [(1R,2S,4R)-4-{[5-({4-[(1S)-7-cyclopropyl-3,4-dihydro-1H-isochromen-1-yl]-5-methyl-2-thienyl}carbonyl)pyrimidin-4-yl]amino}-2-hydroxycyclopentyl]methyl sulfamate] was tested. Which “Percent Inhibition” value (Concentration 0.111 μM) did it give?
A: 81

Q: And the IC50 (class symbols A/B/C)?
A: 10 to 100 nM

Q: What does the source list for NS(=O)(=O)OC[C@H]1C[C@@H](Nc2ncncc2C(=O)c2cc(Sc3cccc(Cl)c3)c(Cl)s2)C[C@@H]1O [I-175, [(1R,2S,4R)-4-{[5-({5-chloro-4-[(3-chlorophenyl)sulfanyl]-2-thienyl}carbonyl)pyrimidin-4-yl]amino}-2-hydroxycyclopentyl]methyl sulfamate]?
A: inhibition at 0.111 µM (Concentration 0.111 μM): 90%; IC50 (class symbols A/B/C): 10 to 100 nM

Q: With Cc1sc(C(=O)c2cncnc2N[C@@H]2C[C@H](COS(N)(=O)=O)[C@@H](O)C2)cc1Cc1cccc(Br)c1 [I-52, {(1R,2S,4R)-4-[(5-{[4-(3-bromobenzyl)-5-methyl-2-thienyl]carbonyl}pyrimidin-4-yl)amino]-2-hydroxycyclopentyl}methyl sulfamate] as the compound, how does the inhibition at 0.111 µM (Concentration 0.111 μM) read?
A: 99%

Q: And the IC50 (class symbols A/B/C)?
A: < 10 nM

Q: Which results are given for CN[C@H](c1cccc(Cl)c1)c1csc(C(=O)c2cncnc2N[C@@H]2C[C@H](COS(N)(=O)=O)[C@@H](O)C2)c1 (mixture of isomers) [I-47, [(1R,2S,4R)-4-{[5-({4-[(R)-(3-chlorophenyl)(methylamino)methyl]-2-thienyl}carbonyl)pyrimidin-4-yl]amino}-2-hydroxycyclopentyl]methyl sulfamate and [(1R,2S,4R)-4-{[5-({4-[(S)-(3-chlorophenyl)(methylamino)methyl]-2-thienyl}carbonyl)pyrimidin-4-yl]amino}-2-hydroxycyclopentyl]methyl sulfamate]?
A: Percent Inhibition (Concentration 0.111 μM): 97; IC50 (class symbols A/B/C): < 10 nM

Q: What does the source list for CN(C)[C@H](c1cccc(Cl)c1)c1csc(C(=O)c2cncnc2N[C@@H]2C[C@H](COS(N)(=O)=O)[C@@H](O)C2)c1 (single isomer, unassigned) [I-153b, [(1R,2S,4R)-4-{[5-({4-[(R)-(3-chlorophenyl)(dimethylamino)methyl]-2-thienyl}carbonyl)pyrimidin-4-yl]amino}-2-hydroxycyclopentyl]methyl sulfamate or [(1R,2S,4R)-4-{[5-({4-[(S)-(3-chlorophenyl)(dimethylamino)methyl]-2-thienyl}carbonyl)pyrimidin-4-yl]amino}-2-hydroxycyclopentyl]methyl sulfamate]?
A: Percent Inhibition (Concentration 0.111 μM): 92; IC50 (class symbols A/B/C): < 10 nM

Q: What does the source list for NS(=O)(=O)OC[C@H]1C[C@@H](Nc2ncncc2C(=O)c2cc(Cc3cccc(I)c3)cs2)[C@@H](F)[C@@H]1O [I-99, {(1R,2R,3R,4R)-3-fluoro-2-hydroxy-4-[(5-{[4-(3-iodobenzyl)-2-thienyl]carbonyl}pyrimidin-4-yl)amino]cyclopentyl}methyl sulfamate]?
A: inhibition at 0.111 µM (Concentration 0.111 μM): 97%; IC50 (class symbols A/B/C): < 10 nM

Q: Which results are given for Cc1sc(C(=O)c2cncnc2N[C@@H]2C[C@H](COS(N)(=O)=O)[C@@H](O)[C@H]2O)nc1Cc1cccc(Cl)c1 [I-352, {(1R,2R,3S,4R)-4-[(5-{[4-(3-chlorobenzyl)-5-methyl-1,3-thiazol-2-yl]carbonyl}pyrimidin-4-yl)amino]-2,3-dihydroxycyclopentyl}methyl sulfamate]?
A: inhibition at 0.111 µM [1]: 100%; IC50 [2]: < 10 nM

Q: What does the source list for NS(=O)(=O)OC[C@H]1C[C@@H](Nc2ncncc2C(=O)c2cc([C@@H]3NCCc4ccc(Cl)nc43)c(Cl)s2)C[C@@H]1O.NS(=O)(=O)OC[C@H]1C[C@@H](Nc2ncncc2C(=O)c2cc([C@H]3NCCc4ccc(Cl)nc43)c(Cl)s2)C[C@@H]1O (mixture of isomers) [I-253, [(1R,2S,4R)-4-{[5-({5-chloro-4-[(8S)-2-chloro-5,6,7,8-tetrahydro-1,7-naphthyridin-8-yl]-2-thienyl}carbonyl)pyrimidin-4-yl]amino}-2-hydroxycyclopentyl]methyl sulfamate and [(1R,2S,4R)-4-{[5-({5-chloro-4-[(8R)-2-chloro-5,6,7,8-tetrahydro-1,7-naphthyridin-8-yl]-2-thienyl}carbonyl)pyrimidin-4-yl]amino}-2-hydroxycyclopentyl]methyl sulfamate]?
A: Percent Inhibition (Concentration 0.111 μM): 100; IC50 (class symbols A/B/C): < 10 nM

Q: With Cc1sc(C(=O)c2cncnc2N[C@@H]2C[C@H](COS(N)(=O)=O)[C@@H](O)C2)cc1[C@@H]1OCCc2ccc(C(F)(F)F)nc21.Cc1sc(C(=O)c2cncnc2N[C@@H]2C[C@H](COS(N)(=O)=O)[C@@H](O)C2)cc1[C@H]1OCCc2ccc(C(F)(F)F)nc21 (mixture of isomers) [I-297, [(1R,2S,4R)-2-hydroxy-4-{[5-({5-methyl-4-[(8S)-2-(trifluoromethyl)-5,8-dihydro-6H-pyrano[3,4-b]pyridin-8-yl]-2-thienyl}carbonyl)pyrimidin-4-yl]amino}cyclopentyl]methyl sulfamate and [(1R,2S,4R)-2-hydroxy-4-{[5-({5-methyl-4-[(8R)-2-(trifluoromethyl)-5,8-dihydro-6H-pyrano[3,4-b]pyridin-8-yl]-2-thienyl}carbonyl)pyrimidin-4-yl]amino}cyclopentyl]methyl sulfamate] as the compound, how does the “Percent Inhibition” value [1] read?
A: 96%

Q: And the IC50 [2]?
A: < 10 nM

Q: Which results are given for Cc1sc(C(=O)c2cncnc2N[C@@H]2C[C@H](COS(N)(=O)=O)[C@@H](O)[C@@H]2F)cc1[C@H]1OCCc2ccc(Cl)cc21 (single isomer, unassigned) [I-264a, [(1R,2R,3R,4R)-4-{[5-({4-[(1S)-7-chloro-3,4-dihydro-1H-isochromen-1-yl]-5-methyl-2-thienyl}carbonyl)pyrimidin-4-yl]amino}-3-fluoro-2-hydroxycyclopentyl]methyl sulfamate or [(1R,2R,3R,4R)-4-{[5-({4-[(1R)-7-chloro-3,4-dihydro-1H-isochromen-1-yl]-5-methyl-2-thienyl}carbonyl)pyrimidin-4-yl]amino}-3-fluoro-2-hydroxycyclopentyl]methyl sulfamate]?
A: Percent Inhibition (Concentration 0.111 μM): 33; IC50 (class symbols A/B/C): 100 to 1000 nM

Q: For NS(=O)(=O)OC[C@H]1C[C@@H](Nc2ncncc2C(=O)c2cc([C@H]3NCCc4ccccc43)cs2)[C@H](O)[C@@H]1O (mixture of isomers) [I-295, [(1R,2R,3S,4R)-2,3-dihydroxy-4-{[5-({4-[(1S)-1,2,3,4-tetrahydroisoquinolin-1-yl]-2-thienyl}carbonyl)pyrimidin-4-yl]amino}cyclopentyl]methyl sulfamate and [(1R,2R,3S,4R)-2,3-dihydroxy-4-{[5-({4-[(1R)-1,2,3,4-tetrahydroisoquinolin-1-yl]-2-thienyl}carbonyl)pyrimidin-4-yl]amino}cyclopentyl]methyl sulfamate], which “Percent Inhibition” value [1] is on record?
A: 99%

Q: What about the IC50 [2] of the same compound?
A: < 10 nM
